Results: patent US7993884B2, “Beta-xylosidase for conversion of plant cell wall carbohydrates to simple sugars” (The United States of America as represented by the …, priority 2006, dated 2011)
Where “and” joins values, the source holds several entries; their conditions need not be identical. Equal values may be shown once. Entries after “also recorded” stand apart in the source; their conditions may differ. Read-outs that look alike come from different tables or passages of the source.

Tests used:
[1] = target: T1, Selenomonas ruminantium GA192 β-D-xylosidase (SXA), wild type, SEQ ID NO: 2 (Pseudoselenomonas ruminantium, UniProt O52575); test: Steady-state kinetics of SXA with 4NPX2, A2 and X2-X6 by HPLC (Example 1)
Protocol: (§1) Samples (25 μL) were injected onto the column equilibrated with 0.1 M NaOH and developed with a 15-min linear gradient (0.1 M NaOH to 15 mM sodium acetate) at ˜25° C. and a flow rate of 1 mL min^−1.
(§2) Before (time=0 min) and after (time=1-6 min) initiating reactions with enzyme (7 μL), samples (0.05-0.1 mL) were removed and quenched with an equal volume of 0.5 M acetic acid and frozen. Following lyophilization, samples were dissolved in H2O and analyzed by HPLC. […] Results from two replicate reactions were combined to provide data points for the progress curves.
(§3) Before and after addition of enzyme (7 μL), 25-μl aliquots of the reaction mixtures were directly injected onto the HPLC column for quantification of product L-arabinose.
(§4) Quenched samples were analyzed by HPLC for D-xylose. Initial rates were determined from linear regressions of [D-xylose] produced versus reaction time. […] Four 1-mL replicate reactions were conducted to supply data points for the progress curves. Two parallel reactions were conducted, under the same conditions with the same reaction components, the absorbance at 400 nm was continuously monitored (20 min) for 4NP production, and the absorbance values were converted to mM 4NP concentrations by using a delta extinction coefficient (product-substrate) of 8.22 mM^−1 cm^−1.

[2] = target: T1, Selenomonas ruminantium GA192 β-D-xylosidase (SXA), wild type, SEQ ID NO: 2; test: Steady-state kinetics of SXA with 4NP-glycosides (Example 1, Methods A and B)
Protocol: Kinetics with 4NP Substrates
(§5) Two methods were employed for determining initial rates. […] Initial rates were calculated from fitting the absorbance readings versus time to a line (minimum of 4 points per reaction progression) and by using an extinction coefficient of 17.4 mM^−1 cm^−1. In Method B (continuous monitoring), temperature-equilibrated reactions (1 mL) were monitored at 380 nm (for pH values below 6) or 400 nm (for pH values of 6 and above). Reactions were generally monitored 0.3 min for initial rate determinations. Delta extinction coefficients (product-substrate) used for molar conversion were determined by subtracting the absorbance of substrate (at pH 5 so even very minor contaminating 4NP would not contribute) from the absorbance of 4NP for each reaction condition. […] The concentration of 4NP substrates was determined by incubating the substrate with excess enzyme until an end point was reached, adding an aliquot (0.01 to 0.1 mL) to 0.1 M NaOH, recording the absorbance at 400 nm and using the extinction coefficient of 18.3 cm^−1mM^−1. Unless indicated otherwise, for both Methods A and B, reactions were initiated by adding a small aliquot of enzyme (generally 7 μl of enzyme diluted into 10 mM sodium phosphate, pH 7.0, and incubated on wet ice or at ˜25° C.) to the 1-mL, temperature-equilibrated (25° C.) reaction mixtures. For pH studies, buffers of constant ionic strength (I=0.3 M), adjusted with NaCl, were used as indicated: 100 mM succinate-NaOH (pH 4.3-6), 100 mM sodium phosphate (pH 6-8), 30 mM sodium pyrophosphate (pH 8-9), glycine-NaOH (pH 9) and glycylglycine-NaOH (pH 9).

SXA [3] = target: T2, SXA (Selenomonas ruminantium, UniProt O52575); test: SXA-catalyzed hydrolysis of 4NP-glycoside substrates, initial rates (Methods A and B);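 for all read-outs here: initial rates from 4-nitrophenol release, tracked by absorbance over roughly 0.3 min and converted using product-minus-substrate extinction differences, in 1 mL mixtures started by enzyme addition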; assay type: biochemical; conditions: for Km / kcat Rel. to η/ηo = 1: Exper. 2: MES pH 6.00, Method B
Protocol: as §5

[4] = target: Selenomonas ruminantium GA192 β-D-xylosidase (SXA, parent SEQ ID NO: 2) variant E186A (Pseudoselenomonas ruminantium, UniProt O52575, E186A); test: Steady-state kinetics of SXA mutant E186A with 4NP substrates
Protocol: (§6) Site-directed mutagenesis was performed using the QuikChange site-directed mutagenesis kit (Stratagene) according the manufacturer's instructions. […] Complete sequences were determined on a 3700 sequencer (Applied Biosystems) using T7 promoter and specific primers to confirm that only the intended mutations had been introduced. Lasergene software (DNAStar) was used to analyze the sequence data. pSRA1 and its mutated plasmids were used for the transformation of E. coli BL21(DE3). Transformants were inoculated to 50 mL Luria-Bertani (LB) broth supplemented with 50 mg ampicillin/mL and the flask was shaken overnight at 250 rpm and 37° C. Twenty mL of the overnight culture were transferred to a 2.8-liter baffled flask containing 1.0 liter SOB medium [2.0% tryptone, 0.5% yeast extract, 0.05% NaCl, 0.0186% KCl (all in wt/vol) and 10 mM MgSO4] supplemented with 50 mg ampicillin/mL. The culture was shaken at 250 rpm and 37° C. […] Cells were harvested by centrifugation and cell pellets were stored at −80° C. until use.
(§7) Initial purification steps and diafiltration steps were performed at 4° C. Chromatography was at room temperature (˜24° C.). Cells were thawed, suspended in 40 mL of 50 mM Tris-HCl, pH 7.5 (Buffer A) containing Complete protease inhibitor cocktail (Roche) and disrupted by sonication. Following centrifugation, the supernatant was brought to 30% saturation with respect to ammonium sulfate and centrifuged. […] The column was washed until absorbance at 280 nm of the eluate became minimal (˜200 mL) and developed with a 500-mL linear gradient (Buffer A+30% saturated ammonium sulfate to Buffer A).
(§8) Two methods were employed for determining initial rates. […] Initial rates were calculated from fitting the absorbance readings versus time to a line (minimum of 4 points per reaction progression) and by using an extinction coefficient of 17.4 mM^−1 cm^−1. […] The concentration of 4NP substrates was determined by incubating the substrate with excess enzyme until an end point was reached, adding an aliquot (0.01 to 0.1 mL) to 0.1 M NaOH, recording the absorbance at 400 nm and using the extinction coefficient of 18.3 cm^−1mM^−1. Unless indicated otherwise, for both Methods A and B, reactions were initiated by adding a small aliquot of enzyme (generally 7 μl of enzyme diluted into 10 mM sodium phosphate, pH 7.0, and incubated on wet ice or at ˜25° C.) to the 1-mL, temperature-equilibrated (25° C.) reaction mixtures. For pH studies, buffers of constant ionic strength (I=0.3 M), adjusted with NaCl, were used as indicated: 100 mM succinate-NaOH (pH 4.3-6), 100 mM sodium phosphate (pH 6-8), 30 mM sodium pyrophosphate (pH 8-9), glycine-NaOH (pH 9) and glycylglycine-NaOH (pH 9).

SXA [5] = target: T2, SXA; conditions: pH 5.3 and 25° C., relative to A2
Protocol: as §1, §2, §3

[6] = target: Selenomonas ruminantium GA192 β-D-xylosidase (SXA, parent SEQ ID NO: 2) variant D14A (Pseudoselenomonas ruminantium, UniProt O52575, D14A); test: Steady-state kinetics of SXA mutant D14A with 4NP substrates
Protocol: as §6, §7, §8

SXA [7] = target: T2, SXA; test: biochemical; conditions: for Km: read-out: Km^4NPA, pH 5.3, 25° C.; for Ki: Ki^D-xylose, inhibition of SXA-catalyzed hydrolysis of 4NPA
SXA [8] = target: T2, SXA; test: pH stability of SXA and protection from low pH inactivation at pH 4.0 by monosaccharides; conditions: pH 4.0, 25° C.
Protocol: Buffers of constant ionic strength (I=0.3 M), adjusted with NaCl, were used as indicated: 100 mM succinate-NaOH (pH 3.5-6), 100 mM sodium phosphate (pH 6-8), 30 mM sodium pyrophosphate (pH 8-9), and 100 mM glycine-NaOH (pH 9-10). […] Initial rates were determined by monitoring reactions continuously at 400 nM for 0.3 min. […] Relative activity remaining data were fitted to equation 3, which describes a first order decay: A is the relative activity remaining at varied times of preincubation, A0 is the relative activity remaining at time zero of the preincubation, kobs is the first order rate constant, and t is the time of preincubation. Apparent affinities for D-xylose and D-glucose were determined by fitting kobs values from the monosaccharide protection studies to equation 4 where kobs is the observed first order rate constant for the decay, k0 is the first order rate constant in the absence of ligand (e.g., D-xylose), I is the ligand concentration in the preincubation mixture, and Ki is the dissociation constant of ligand from the enzyme-ligand complex.

SXA [9] = target: T2, SXA; conditions: pH 5.3, 55° C.; for KI (inactivation): read-out: Ki, dissociation constant from protection against thermal inactivation, kobs fitted to equation 4
Protocol: Initial rates were determined by monitoring reactions continuously at 400 nM for 0.3 min. […] Relative activity remaining data were fitted to equation 3, which describes a first order decay: A is the relative activity remaining at varied times of preincubation, A0 is the relative activity remaining at time zero of the preincubation, kobs is the first order rate constant, and t is the time of preincubation. Apparent affinities for D-xylose and D-glucose were determined by fitting kobs values from the monosaccharide protection studies to equation 4 where kobs is the observed first order rate constant for the decay, k0 is the first order rate constant in the absence of ligand (e.g., D-xylose), I is the ligand concentration in the preincubation mixture, and Ki is the dissociation constant of ligand from the enzyme-ligand complex.
Ligand protection studies contained varied concentrations of D-xylose or D-glucose in the pH 5.3 preincubation buffer at 55° C.

[10] = target: β-D-xylosidase/α-L-arabinofuranosidase (Selenomonas ruminantium, UniProt O52575); test: Inhibition of the enzyme by monosaccharides and ethanol (detailed description); assay type: biochemical, Selenomonas ruminantium GA192
SXA [11] = target: T2, SXA; test: biochemical; conditions: inhibition of SXA-catalyzed hydrolysis of 4NPX, I=0.3 M, competitive
Protocol: Reactions were monitored continuously for 0.3 min at 400 nm to determine initial rates. Initial-rate data were fitted to equation 6, where v is the initial rate, kcat is the rate of the reaction when saturated with substrate, S is the substrate concentration, Km is the Michaelis constant, I is the inhibitor concentration (e.g., D-glucose), and Ki is the dissociation constant of inhibitor from the enzyme-inhibitor complex.

SXA [12] = target: T2, SXA; test: biochemical; conditions: pH 5.3, 25° C.
SXA [13] = target: T2, SXA; conditions: 100 mM sodium phosphate, pH 7.0, 25° C., not well determined
Protocol: as §1, §4

[14] = I=0.3 M, 25° C., Eq. 7 (4NPX), Eq. 5 (4NPA)
[15] = 100 mM succinate-NaOH, pH 5.3, 25° C, Method A

For `O=[N+]([O-])c1ccc(O[C@@H]2O[C@@H](CO)[C@H](O)[C@H]2O)cc1` [4NPA, 4-nitrophenyl-α-L-arabinofuranoside], the “kcat factor between 4NPA and A2” value ([1]; 4NPA larger / A2 reduced) was 36 fold, the relative kcat value ([1]; pH 5.3, 25° C, A2 = 1) was 34 and the kcat ([2]; 100 mM MES-NaOH, pH 6.00, 25° C, Method B, 50% sucrose, η/ηo 6.85) was 2.87 ± 0.12 s⁻¹. The kcat ([2]; 100 mM MES-NaOH, pH 6.00, 25° C, Method B, η/ηo 1.00) was 2.99 ± 0.05 s⁻¹, the kcat ([2]; 100 mM succinate-NaOH, pH 5.3, 25° C, Method A, no sucrose) was 2.68 ± 0.06 s⁻¹ and the “affinity of dianionic SXA (D14^−E186^−), higher than that of monoanionic SXA (D14^−E186^H)” value ([2]; from pH dependence of 1/Km) was “no affinity”. The “kcat Rel. to η/ηo = 1” value ([2]; pH 6.00, η/ηo 6.85) was 0.960 ± 0.040, the “pH-independent kcat/Km” value (SXA [3]) was 5.10±0.07 s^−1 mM^−1 and the “Relative Rate” value (SXA [3]; 5 mM 4NP glycoside, 100 mM succinate-NaOH, pH 5.3, 25° C., Method A, initial rate relative to 4NPX) was 0.101 ± 0.003. The “pH-independent 1/Km” value (SXA [3]; 1/Km versus pH, Eq. 4 (4NPX), Eq. 5 (4NPA)) was 1.60±0.02 mM^−1, the Km (SXA [3]; η/ηo 1.00) was 745 ± 36 µM and the “kcat Rel. to η/ηo = 1” value (SXA [3]; η/ηo 1.00) was 1.00. The Km (SXA [3]; η/ηo 6.85 (50% sucrose)) was 754 ± 101 µM, the “kcat Rel. to η/ηo = 1” value (SXA [3]; η/ηo 6.85 (50% sucrose)) was 0.960 ± 0.040 and the “pKa of kcat versus pH (single group)” value (SXA [3]; I=0.3 M, 25° C., Eq. 4) was 3.6 and 3.64±0.10. The “pKa1 of kcat/Km versus pH” value (SXA [3]; I=0.3 M, 25° C., Eq. 5) was ~5.0 and 5.06±0.02, the “pKa2 of kcat/Km versus pH” value (SXA [3]; I=0.3 M, 25° C., Eq. 5) was 7.20±0.02 and the “pKa1 of 1/Km versus pH” value (SXA [3]; [14]) was 5.00±0.03. For the same compound, the “pKa2 of 1/Km versus pH” value (SXA [3]; [14]) was 7.16±0.03, the “binding to dianionic SXA (D14^−E186^−)” value (SXA [3]; from pH dependencies) was “weakly, if at all; also recorded: no affinity” and the kcat [4, 15] was 0.000239 ± 0.000008 s⁻¹. For the same compound, the “factor by which kcat is degraded vs wild type” value ([4]; pH 5.3, 25° C.) was 11000, the relative kcat values (SXA [5]) was 34 and the kcat [6, 15] was 0.000936 ± 0.000012 s⁻¹. The “factor by which kcat is degraded vs wild type” value ([6]; pH 5.3, 25° C.) was 3000, the Km (SXA [7]; FIG. 22A experiment (D-xylose α:β 6:1)) was 880 ± 130 µM and the Km (SXA [7]; FIG. 22B experiment (D-xylose α:β 1:2.5)) was 900 ± 13 µM.
`O=C[C@H](O)[C@@H](O)[C@H](O)[C@H](O)CO` [D-glucose] was tested, and the “kobs of SXA inactivation in presence of monosaccharide” value (from here on “kobs of SXA inactivation”) (SXA [8]; 234 mM) was 0.0210 ± 0.0016 min⁻¹, the “kobs of SXA inactivation” value (SXA [8]; 467 mM) was 0.0124 ± 0.0007 min⁻¹ and the “kobs of SXA inactivation” value (SXA [9]; 93.5 mM) was 0.00949 ± 0.00069 min⁻¹. The “kobs of SXA inactivation” value (SXA [9]; 187 mM) was 0.00588 ± 0.00077 min⁻¹, the “kobs of SXA inactivation” value (SXA [9]; 280 mM) was 0.00445 ± 0.00081 min⁻¹ and the “kobs of SXA inactivation” value (SXA [9]; 374 mM) was 0.00336 ± 0.00095 min⁻¹. It also gave a KI (inactivation) (SXA [9]) of 56.1 ± 0.8 mM, a Ki [10] of 27 ± 0.4 mM and a Ki (SXA [11]; pH 5.3, 25° C.) of 79 ± 2.3 mM. It also gave a Ki (SXA [11]; pH 7.0, 25° C.) of 34.5 ± 0.7 mM and a Ki (SXA [11]; pH 9.0, 25° C.) of 18.7 ± 0.6 mM.
In the case of `O=C[C@H](O)[C@@H](O)[C@H](O)CO` [D-xylose], the “kobs of SXA inactivation” value (SXA [8]; 46.7 mM) is reported as 0.0335 ± 0.0008 min⁻¹, the “kobs of SXA inactivation” value (SXA [8]; 93.5 mM) is reported as 0.0186 ± 0.0004 min⁻¹ and the “kobs of SXA inactivation” value (SXA [8]; 280 mM) is reported as 0.00614 ± 0.00036 min⁻¹. The KI (inactivation) (SXA [8]; read-out: Ki, dissociation constant from protection against low pH inactivation, kobs fitted to equation 4) was 31.7 ± 2.8 mM, the Ki (SXA [12]; Ki^D-xylose, inhibition of SXA-catalyzed hydrolysis of 4NPX, Eq. 3 noncompetitive (mixed), D-xylose α:β 1:2.5) was 9.63 ± 0.3 mM and the Ki (SXA [12]; Kis^D-xylose·4NPX, Eq. 3) was 15.9 ± 2.1 mM. The Ki (SXA [3]; read-out: Ki(xylose)) was 7.4 mM, the “kobs of SXA inactivation” value (SXA [9]; 18.7 mM) was 0.0132 ± 0.0010 min⁻¹ and the “kobs of SXA inactivation” value (SXA [9]; 46.7 mM) was 0.00649 ± 0.00087 min⁻¹. The “kobs of SXA inactivation” value (SXA [9]; 93.5 mM) was 0.00326 ± 0.00056 min⁻¹, the “kobs of SXA inactivation” value (SXA [9]; 280 mM) was 0.000917 ± 0.00033 min⁻¹ and the KI (inactivation) (SXA [9]) was 17.6 ± 1.8 mM. It also gave a Ki ([10]; read-out: Ki) of 4.2 ± 0.1 mM, a Ki (SXA [11]; pH 4.3, 25° C.) of 43.5 ± 1.1 mM and a Ki (SXA [11]; pH 5.3, 25° C.) of 7.62 ± 0.26 mM. It also gave a Ki (SXA [11]; pH 7.0, 25° C.) of 3.82 ± 0.06 mM, a Ki (SXA [11]; pH 9.0, 25° C.) of 3.21 ± 0.14 mM and a Ki (SXA [7]; D-xylose α:β 1:2.5, pH 7.0 (100 mM sodium phosphate, I=0.3 M), 25° C.) of 5.15 ± 0.08 mM. For the same compound, the Ki (SXA [7]; D-xylose α:β 6:1, pH 7.0 (100 mM sodium phosphate, I=0.3 M), 25° C.) was 4.97 ± 0.05 mM, the Ki (SXA [7]; D-xylose α:β ratio of 1:2.5, pH 5.3, 25° C., competitive) was 11.8 ± 0.3 mM and the Ki (SXA [7]; D-xylose α:β ratio of 6:1, pH 5.3, 25° C., competitive) was 11.9 ± 0.3 mM.
`O=C[C@H](O)[C@@H](O)[C@@H](O)CO` [L-arabinose] showed a Ki ([10]; read-out: Ki) of 20 ± 0.5 mM.
For `O=[N+]([O-])c1ccc(O[C@@H]2OC[C@@H](O[C@@H]3OC[C@@H](O)[C@H](O)[C@H]3O)[C@H](O)[C@H]2O)cc1` [4NPX2, 4-Nitrophenyl-β-D-xylobioside], the “kcat (4NPX2 to 4NPX + D-xylose)” value (SXA [13]) was 50.5 ± 25.7 s⁻¹ and the Km (SXA [13]; read-out: Km (4NPX2 to 4NPX + D-xylose)) was 690 ± 430 µM.
